Counter-ions that a name gives are not always drawn. Like-named read-outs stand apart in the source and are kept apart here.

The source of these data is patent US20120156333A1, “STABILIZED BETA CRYPTOXANTHIN-CONTAINING WATER AND THE USE THEREOF” (ARKRAY, INC., priority 2010, published 2012).

For series [1] the following is noted: for ln k: converted from log Kobs. The procedure: Specifically, a graph of FIG. 185 on page 95 of the publication was cited. FIG. 1 is an Arrhenius plot of degradation of thiamine hydrochloride in a vitamin complex liquid agent, the Y axis indicates log Kobs (day^−1), and the X axis indicates 1/T (K^1). The stable periods were calculated based on the activation energy for degradation of thiamine hydrochloride in the vitamin complex liquid agent, shown in the graph.
In FIG. 1, the Y axis is indicated by not ln, but log. Therefore log Kobs was converted into ln k.
Then, −Ea/R and ln A were calculated from the ln k and 1/T (K^−1) on the X axis of FIG. 1 based on the Arrhenius equation represented by the formula (1) below.

For series [2] the following is noted: degradation in vitamin complex liquid agent, cited from earlier work.

For `Cc1ncc(C[n+]2csc(CCO)c2C)c(N)n1` [thiamine hydrochloride], the ln k is on record as −9.4406 in series [1] (T 20.0 ° C.); −8.635 in series [1] (T 22.5 ° C.); −7.829 in series [1] (T 29.1 ° C.); −6.6775 in series [1] (T 38.7 ° C.); −5.296 in series [1] (T 50.0 ° C.); −4.0986 in series [1] (T 57.6 ° C.). The compound also showed a ln k in series [1] (T 67.7 ° C.) of −2.993. Moreover, the “ln A” value in series [1] (intercept b of Arrhenius equation from ln k and 1/T (K^−1)) was found to be 35.139. Moreover, the “−Ea/R” value in series [1] (slope a of Arrhenius equation from ln k and 1/T (K^−1)) is −13005. In addition, the Kobs in series [2] (T 20.0 ° C.) was 0.000 day⁻¹; in series [2] (T 22.5 ° C.) it was 0.000 day⁻¹; in series [2] (T 29.1 ° C.) it was 0.000 day⁻¹; in series [2] (T 38.7 ° C.), 0.001 day⁻¹; in series [2] (T 50.0 ° C.), 0.005 day⁻¹; in series [2] (T 57.6 ° C.) it was 0.017 day⁻¹. Further, the Kobs in series [2] (T 67.7 ° C.) was 0.050 day⁻¹. Besides, the log10k in series [2] (T 20.0 ° C.) is reported as −4.100; in series [2] (T 22.5 ° C.), −3.750; in series [2] (T 29.1 ° C.), −3.400; in series [2] (T 38.7 ° C.) it was −2.900; in series [2] (T 50.0 ° C.) it was −2.300; in series [2] (T 57.6 ° C.) it was −1.780. Besides, in series [2] (T 67.7 ° C.), the log10k is on record as −1.300.
